Measured values taken from patent US10174040B2, “Pyrrolopyrimidine compound or salt thereof and compositions containing the pyrrolopyrimidine compound or salt thereof” (TAIHO PHARMACEUTICAL CO., LTD., priority 2014, dated 2019).
Values belong to the compound of their own block, whether it stands above or below them.

Tests used:
[1] = system: human prostate cancer LNCAP.FGC cell line; assay: Cell growth inhibition 2 (CellTiter-Glo), LNCAP.FGC; type: cell-based; conditions: 384-well plate
[2] = system: human lung cancer A-427 cell line; assay: Cell growth inhibition 2 (CellTiter-Glo), A-427; type: cell-based; conditions: 384-well plate
[3] = system: human diffuse large B-cell lymphoma DB cell line; assay: Cell growth inhibition 2 (CellTiter-Glo), DB; type: cell-based; conditions: 384-well plate
[4] = system: human skin cancer A-431 cell line; assay: Cell growth inhibition 2 (CellTiter-Glo), A-431; type: cell-based; conditions: 384-well plate
[5] = system: Human colon cancer HCT-116 cell lines; assay: Antitumor effect on tumor cells transplanted into mice 1 (HCT-116, tumor volume); type: in vivo, BALB/cAJcl-nu/nu mice; conditions: HCT-116 in nude mice; for RTV15 comparison with control: Dunnett's test
Experimental: (§1) Human colon cancer HCT-116 cell lines were washed in PBS and suspended at a concentration of 4×10^7 cells/mL. 0.1 mL of this cell suspension was subcutaneously implanted in the right chest of 6-week-old BALB/cAJcl-nu/nu mice (produced by CLEA Japan, Inc.).
(§2) The length and the width of the implanted tumor and the body weight were measured. The tumor volume (TV) was calculated using the following equation (equation D). TV (mm3)=(length×width^2)/2, wherein the unit of length and width is mm (equation D).
(§3) When the TV reached 100 to 300 mm3, the animals were assigned to each group in accordance with a stratified randomization procedure. The day was considered day 1, the TV on the day was considered TV1, and the body weight on the day was considered BW1.
(§4) A required amount of the test compound was weighed to prepare an administration solution.
(§5) Thereafter, the length and the width of the tumor and the body weight (BWn) on day n were measured over time in the same manner, and the TVn of each mouse was calculated. Further, the relative tumor volume (RTVn) was calculated based on the TVn of each mouse using the following equation (equation E); the treatment/control (T/C) value (%) was calculated based on the mean RTVn of each drug administration group using the following equation (equation F); and the weight change rate (BWCn) was calculated using the following equation (equation G). RTVn=TVn/TV1 (equation E) T/Cn(%)=(mean RTV of each drug administration group on the last day of the test)/(mean RTV of the control group on the last day of the test)×100 (equation F) BWCn (%)=(BWn−BW1)/BW1×100 (equation G) FIGS. 1 and 2, and Table 21 below show the results.

[6] = system: human acute leukemia MV-4-11 cell line; assay: Cell growth inhibition 2 (CellTiter-Glo), MV-4-11; type: cell-based; conditions: MV4-11, 384-well plate
[7] = system: human breast cancer MDA-MB-453 cell line; assay: Cell growth inhibition 2 (CellTiter-Glo), MDA-MB-453; type: cell-based; conditions: 384-well plate
[8] = system: human pancreatic cancer Capan-1 cell line; assay: Cell growth inhibition 2 (CellTiter-Glo), Capan-1; type: cell-based; conditions: 384-well plate
[9] = Body weight change, antitumor test 2 (HCT-116 mice); type: in vivo, BALB/cAJcl-nu/nu mice; conditions: HCT-116 xenograft in nude mice, 120 mg/kg/day, administration days 1, 4, 8, 11, day 15
[10] = system: Human colon cancer HCT-116 cell lines; assay: Antitumor effect on tumor cells transplanted into mice 2 (HCT-116, tumor volume); type: in vivo, BALB/cAJcl-nu/nu mice; conditions: Dunnett's test; HCT-116 in nude mice; hydrochloride compound of Example 55
[11] = system: human multiple myeloma U266B1 cell line; assay: Cell growth inhibition 2 (CellTiter-Glo), U266B1; type: cell-based; conditions: 384-well plate
carbonic anhydrase II = carbonic anhydrase II (Homo sapiens (Human), UniProt P00918); assay: Carbonic anhydrase II enzyme activity inhibition (4-NPA esterase activity); type: biochemical
[12] = Body weight change, antitumor test 1 (HCT-116 mice); type: in vivo, BALB/cAJcl-nu/nu mice
Experimental: as §1, §2, §3, §4
as §5, with “RTVn=TVn/TV1 (equation E) T/Cn(%)=(mean RTV of each drug administration group on the last day of the test)/(mean RTV of the control group on the last day of the test)×100 (equation F) BWCn (%)=(BWn−BW1)/BW1×100 (equation G) FIGS. 1 and 2, and Table 21 below show the results.” left out

[13] = system: human osteo- and soft tissue sarcoma SJCRH30 cell line; assay: Cell growth inhibition 2 (CellTiter-Glo), SJCRH30; type: cell-based; conditions: 384-well plate
[14] = Body weight change, antitumor test 3 (CCRF-CEM mice); type: in vivo, BALB/cAJcl-nu/nu mice (nude mice); conditions: for change of the body weight compared with the control: CCRF-CEM nude mice, Test Example 7
Experimental: as §2, §5
(§6) The tumor growth inhibitory effects on human tumors were evaluated as in Test Example 5, except that the compound hydrochloride obtained in Example 122, the compound hydrochloride (Example 64), and human acute lymphoblastic leukemia (ALL) CCRF-CEM cell lines were used, and the animals were assigned to each group in accordance with a stratified randomization procedure when the TV reached 140 to 380 mm3.
At this time, the cell lines were washed in PBS, and suspended in 50% PBS and 50% Matrigel basement membrane matrix (#356237; produced by BD Biosciences) at a concentration of 1×10^8 cells/mL. 0.1 mL of this cell suspension was subcutaneously implanted to the right chest of 6-week-old BALB/cAJcl-nu/nu mice (nude mice) (produced by CLEA Japan, Inc.). […]

[15] = system: human colon cancer HCT116 cell line; assay: Cell growth inhibition 2 (CellTiter-Glo), HCT116; type: cell-based; conditions: HCT-116, 384-well plate
[16] = system: human acute T lymphoblastic leukemia CCRF-CEM cell lines; assay: Cell growth inhibition 1 (CellTiter-Glo), CCRF-CEM; type: cell-based; conditions: 72 hours culture with compound
[17] = system: human acute lymphoblastic leukemia (ALL) CCRF-CEM cell lines; assay: Antitumor effect on tumor cells transplanted into mice 3 (CCRF-CEM, tumor volume); type: in vivo, BALB/cAJcl-nu/nu mice (nude mice); conditions: Dunnett's test; CCRF-CEM in nude mice; compound hydrochlorides, intravenous
Experimental: as §2, §5, §6
At this time, the cell lines were washed in PBS, and suspended in 50% PBS and 50% Matrigel basement membrane matrix (#356237; produced by BD Biosciences) at a concentration of 1×10^8 cells/mL. 0.1 mL of this cell suspension was subcutaneously implanted to the right chest of 6-week-old BALB/cAJcl-nu/nu mice (nude mice) (produced by CLEA Japan, Inc.). The compound hydrochloride (Example 122) was intravenously administered in an amount of 5 mL per 1 kg of body weight on days 1 and 8, and the compound hydrochloride (Example 133) was intravenously administered in an amount of 5 mL per 1 kg of body weight on days 1 and 8.

[18] = target: NAE (heterodimer of APPBP1 and UBA3) (Homo sapiens (Human), UniProt Q8TBC4); assay: Nedd8 conjugation inhibitory activity (AlphaScreen assay); type: biochemical; conditions: purified NAE, GST-UBC12, Biotin-Nedd8, ATP
Chain of NAE (heterodimer of APPBP1 and UBA3) (Q8TBC4 whole entry): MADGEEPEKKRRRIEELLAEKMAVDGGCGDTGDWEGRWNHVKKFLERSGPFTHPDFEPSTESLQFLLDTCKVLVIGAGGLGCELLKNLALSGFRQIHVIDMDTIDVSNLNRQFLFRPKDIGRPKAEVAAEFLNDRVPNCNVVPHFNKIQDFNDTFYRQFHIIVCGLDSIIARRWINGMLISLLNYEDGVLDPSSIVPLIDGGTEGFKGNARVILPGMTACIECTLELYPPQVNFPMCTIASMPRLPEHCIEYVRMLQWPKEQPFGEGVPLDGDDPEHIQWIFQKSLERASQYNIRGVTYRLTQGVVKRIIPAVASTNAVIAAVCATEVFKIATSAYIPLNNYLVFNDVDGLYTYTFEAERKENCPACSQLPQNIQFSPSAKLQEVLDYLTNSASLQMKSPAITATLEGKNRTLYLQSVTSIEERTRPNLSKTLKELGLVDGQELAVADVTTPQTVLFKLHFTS
Chain of NAE (heterodimer of APPBP1 and UBA3) (Q13564 whole entry partner): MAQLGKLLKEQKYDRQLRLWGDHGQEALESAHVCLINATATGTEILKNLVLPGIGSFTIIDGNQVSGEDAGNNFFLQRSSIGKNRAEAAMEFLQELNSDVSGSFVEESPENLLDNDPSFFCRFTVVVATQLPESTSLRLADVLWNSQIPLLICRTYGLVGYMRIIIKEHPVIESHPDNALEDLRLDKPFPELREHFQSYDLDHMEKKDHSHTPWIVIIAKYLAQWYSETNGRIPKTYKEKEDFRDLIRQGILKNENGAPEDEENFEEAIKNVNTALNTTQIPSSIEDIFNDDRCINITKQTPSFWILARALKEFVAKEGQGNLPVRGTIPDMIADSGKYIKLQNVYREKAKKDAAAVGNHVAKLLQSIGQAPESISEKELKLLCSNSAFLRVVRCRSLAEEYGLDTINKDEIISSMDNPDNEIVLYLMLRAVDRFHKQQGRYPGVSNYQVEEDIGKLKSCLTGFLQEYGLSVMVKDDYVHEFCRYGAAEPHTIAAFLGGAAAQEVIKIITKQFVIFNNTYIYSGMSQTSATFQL

- IC50 [1]: 410 nM
- IC50 [2]: 180 nM
- IC50 [3]: 560 nM
- IC50 [4]: 750 nM
- IC50 [6]: 110 nM
- IC50 [7]: 1900 nM
- IC50 [8]: 1500 nM
- IC50 [11]: 1400 nM
- IC50 (carbonic anhydrase II; 4-nitrophenyl acetate esterase activity, absorbance at 405 nm): 0.012 µM
- IC50 [13]: > 10000 nM
- IC50 [15]: 89 nM
- IC50 [16]: 89 nM
SMILES: NS(=O)(=O)OC[C@@H]1C[C@@H](n2ccc3c(N[C@H]4CCc5ccccc54)ncnc32)C[C@@H]1O [Comparative Example, N-[(1S)-1-indanyl]-7-[(1R)-3α-hydroxy-4α-(sulfamoyloxymethyl)cyclopentyl]-7H-pyrrolo[2,3-d]pyrimidin-4-amine]
- RTV15 comparison with control [5]: significantly lower than that of the control
- BWC15 (%) Mean ± SD [9]: −8.4 ± 3.2%
- RTV15 comparison with control [10]: significantly lower than that of the control
- inhibitory activity against carbonic anhydrase II (carbonic anhydrase II; summary in words of Table 18): exhibited inhibitory activity against carbonic anhydrase II
- BWC15 (%) Mean ± SD ([12]; body weight change rate day 15, dose 120 mg/kg/day intravenous, administration day 1, 4, 8, 11): −14.3 ± 5.1%
- BWC15 (%) Mean ± SD ([14]; CCRF-CEM xenograft in nude mice, 120 mg/kg/day i.v., administration days 1, 4, 8, 11, day 15): 6.1 ± 2.6%
- RTV comparison with control on day 15 [17]: significantly lower than that of the control

SMILES: Nc1ncnc2c1c(C#Cc1c(F)cccc1F)cn2[C@@H]1O[C@H](CNS(N)(=O)=O)[C@@H](O)[C@H]1O [Example 1, 4-Amino-5-[2-(2,6-difluorophenyl)ethynyl]-7-[(2R,3R,4S,5R)-3,4-dihydroxy-5-[(sulfamoylamino)methyl]tetrahydrofuran-2-yl]pyrrolo[2,3-d]pyrimidine]
- RTV comparison with Comparative Example ([5]; Aspin-Welch's t-test): significantly lower than that of the Comparative Example
- RTV15 comparison with control [5]: significantly lower than that of the control
- change of the body weight compared with the control ([12]; HCT-116 nude mice, Test Example 5): within an acceptable degree

SMILES: CN1CCOc2c1ccc(F)c2C#Cc1cn([C@@H]2O[C@H](CNS(N)(=O)=O)[C@@H](O)[C@H]2O)c2ncnc(N)c12 [Example 64, 8-[2-[4-Amino-7-[(2R,3R,4S,5R)-3,4-dihydroxy-5-[(sulfamoylamino)methyl]tetrahydrofuran-2-yl]pyrrolo[2,3-d]pyrimidin-5-yl]ethynyl]-7-fluoro-4-methyl-2,3-dihydro-1,4-benzoxazine]
- RTV comparison with Comparative Example [17]: significantly lower than that of the Comparative Example
- RTV comparison with control on day 15 [17]: significantly lower than that of the control

SMILES: Nc1ncnc2c1c(C#Cc1c(F)cc(N3CC[C@H](F)C3)cc1F)cn2[C@@H]1C[C@H](CNS(N)(=O)=O)[C@@H](O)[C@H]1O [Example 116, 4-Amino-5-[2-[2,6-difluoro-4-[(3S)-3-fluoropyrrolidin-1-yl]phenyl]ethynyl]-7-[(1R,2S,3R,4R)-2,3-dihydroxy-4-[(sulfamoylamino)methyl]cyclopentyl]pyrrolo[2,3-d]pyrimidine]
- IC50 [18]: 0.0051 µM

SMILES: Nc1ncnc2c1c(C#Cc1c(F)cc(N3CC[C@@H](O)C3)cc1F)cn2[C@@H]1C[C@H](CNS(N)(=O)=O)[C@@H](O)[C@H]1O [Example 120, 4-Amino-5-[2-[2,6-difluoro-4-[(3R)-3-hydroxypyrrolidin-1-yl]phenyl]ethynyl]-7-[(1R,2S,3R,4R)-2,3-dihydroxy-4-[(sulfamoylamino)methyl]cyclopentyl]pyrrolo[2,3-d]pyrimidine]
- change of the body weight compared with the control [14]: almost the same as that of the control
- RTV comparison with control on day 15 [17]: significantly lower than that of the control

SMILES: Nc1ncnc2c1c(C#Cc1c(F)cc(N3CC[C@H](O)C3)cc1F)cn2[C@@H]1C[C@H](CNS(N)(=O)=O)[C@@H](O)[C@H]1O [Example 121, 4-Amino-5-[2-[2,6-difluoro-4-[(3S)-3-hydroxypyrrolidin-1-yl]phenyl]ethynyl]-7-[(1R,2S,3R,4R)-2,3-dihydroxy-4-[(sulfamoylamino)methyl]cyclopentyl]pyrrolo[2,3-d]pyrimidine]
- IC50 [18]: 0.0062 µM

SMILES: CN1CCOc2c1ccc(F)c2C#Cc1cn([C@@H]2C[C@H](CNS(N)(=O)=O)[C@@H](O)[C@H]2O)c2ncnc(N)c12 [Example 122, 8-[2-[4-amino-7-[(1R,2S,3R,4R)-2,3-dihydroxy-4-[(sulfamoylamino)methyl]cyclopentyl]pyrrolo[2,3-d]pyrimidin-5-yl]ethynyl]-7-fluoro-4-methyl-2,3-dihydro-1,4-benzoxazine]
- RTV comparison with Comparative Example [17]: significantly lower than that of the Comparative Example
- RTV comparison with control on day 15 [17]: significantly lower than that of the control

SMILES: Nc1ncnc2c1c(C#Cc1c(F)cccc1F)cn2[C@@H]1C=C(CNS(N)(=O)=O)[C@@H](O)[C@H]1O [Example 128, 4-Amino-5-[2-(2,6-difluorophenyl)ethynyl]-7-[(1R,4R,5S)-4,5-dihydroxy-3-[(sulfamoylamino)methyl]cyclopent-2-en-1-yl]pyrrolo[2,3-d]pyrimidine]
- IC50 [18]: 0.0033 µM

SMILES: Nc1ncnc2c1c(C#Cc1cccc3ccccc13)cn2[C@@H]1O[C@H](COS(N)(=O)=O)[C@@H](O)[C@H]1O [Example 133, [(2R,3S,4R,5R)-5-[4-Amino-5-[2-(1-naphthyl)ethynyl]pyrrolo[2,3-d]pyrimidin-7-yl]-3,4-dihydroxy-tetrahydrofuran-2-yl]methyl sulfamate]
- change of the body weight compared with the control [14]: almost the same as that of the control
- RTV comparison with control on day 15 [17]: significantly lower than that of the control
